Reference: patent US11466066B2, “Variants of human BMP7 protein” (ELI LILLY AND COMPANY, priority 2017, dated 2022)

Assays:
Ki67 = Ki67 expression in GBM cells; assay type: cell-based, human; settings: ATRA 1 μg/ml, F9 100 ng/mL
Protocol: (§1) Glioblastoma multiforme stem cells (GBMs) may be obtained from patients with primitive brain tumors undergoing complete or partial surgical resection. These cells may be maintained as neurospheres in defined media with 3.34 g/L of DMEM and 2.66 g/L F12 reconstituted in sterile distilled water and containing 1% glucose, 0.12% sodium bicarbonate, 5 mM hepes, 2 mM L-glutamine, 4 mg/L heparin, 10 ng/mL bFGF, 20 ng/mL EGF, 0.4% BSA, 100 μg/mL apotransferrin, 25 μg/mL insulin, 60 uM putrescine, 30 nM sodium selenite, and 20 nM progesterone. Cells may be cultured at 37° C. in 5% CO2. Cells may be plated by enzymatically dispersing spheres into single cells with a 2-5 minute incubation at 37° C. with TrypLE™ Express cell dissociation enzyme. The enzyme may be quenched with Dulbecco's Phosphate Buffered Saline (DPBS) containing Ca+ and Mg+. Then the cells may centrifuged to remove TrypLE and DPBS and resuspended as single cells in defined media and counted by a Coulter Z2 Cell and Particle counter.
(§2) Single GBM cells may be plated in defined media at 2×10^6 cells/15 mL/T75 flask for high content imaging or 5×10^5 cells/2 mL/well in 6-well plates for light microscopy. Cells may be treated with 0.01% DMSO, 1 μg/mL ATRA, 100 ng/mL of a human BMP7 protein variant of the present invention (e.g., human BMP7 protein variant F9 (SEQ ID NO: 8)), or a combination of 1 μg/mL ATRA and 100 ng/mL human BMP7 protein variant of the present invention. For light microscopy imaging of the effect of control BMPs (BMP2 and BMP4), cells may be plated as above in 6-well dishes and treated with 0.01% DMSO, 1 μg/mL ATRA, 100 ng/mL BMP2, 50 ng/mL BMP4, or a combination of BMPs at the same concentrations plus 1 μg/mL ATRA. Example images may be captured at 3, 7, and 30 days post-treatment on a Leica DMIRM inverted microscope using a 20× objective, for example. For growth longer than 7 days, media and treatment may be changed approximately every 10 days beginning at day 10. […]

3T3-L1 fibroblasts = test: Alkaline phosphatase stimulation in 3T3-L1 cells; assay type: cell-based; settings: 1 μg/ml pro-BMP7, 1 μM ATRA, 48 hours
Protocol: (§3) 3T3-L1 fibroblasts and MFc7 mouse renal myofibroblasts may be grown essentially as described in Example 2 above. After 48 hours the cells may be washed with PBS prior to the addition of either DMEM/2% dialyzed FBS or OPTI-MEM/2% dialyzed FBS medium containing control vehicle, 1 μg/ml human proBMP7 protein, 1 μM ATRA or a combination of both human BMP7 protein (1 μg/ml) and ATRA (1 μM) may be added for 48 hours. After treatment the cells may be rinsed with PBS and stored at −80° C. for approximately 20 minutes. The cells may be thawed at 37° C. for 30 minutes and 100 μl of PNPP may be added to every well. The plate may be incubated at 37° C. for 1 hour. The absorbance at 405 nm may be read on a plate reader.

SOX2 = SOX2 expression in GBM cells; assay type: cell-based, human; settings: ATRA 1 μg/ml, F9 100 ng/mL
Protocol: as §1, §2

[1] = system: MFc7 mouse renal myofibroblasts; test: Alkaline phosphatase stimulation in MFc7 cells; assay type: cell-based; settings: 1 μg/ml pro-BMP7, 1 μM ATRA, 48 hours
Protocol: as §3

DLD1 C5 tumor xenografts = test: DLD1 C5 mouse xenograft tumor model; assay type: in vivo; settings: saline-treated, then irinotecan treated animals (20 mg/kg, M and Th)
Protocol: Female athymic nude mice age 6- to 7-weeks old are available commercially, including from Harlan Laboratories (Indianapolis, Ind.). The mice are allowed to acclimate for one week and fed ad libitum on a normal low fat (4.5%) diet, which may be continued for the duration of the study. Tumor cells are available for purchase from ATCC and may be cultured in cell culture media such as RPMI 1640 (Life Technologies) with L-glutamine, 25 mM HEPES supplemented with 10% FBS and 1 mM Na Pyruvate. Cells may be detached, washed with serum free medium and then resuspended at a final concentration of 50×10^6 cells/mL in serum free RPMI 1640. Tumor cells, approximately 5×106 may be injected subcutaneously in the rear flank of subject mice in a 1:1 mixture of serum free growth medium and Matrigel (Becton Dickinson, Bedford, Mass.). Tumor and body weight measurements may be performed twice weekly. Prior to treatment, mice can be randomized based on tumor size using a randomization algorithm. Treatments may be started when the average tumor volume reaches 100 mm3. […]
All test or control proteins are prepared in phosphate Buffered Saline (PBS) prior to dose. Tumor size may be determined by caliper measurements. […] Log volume data can be analyzed with two-way repeated measures ANOVA by time and treatment using SAS PROC MIXED software (SAS Institutes Inc, Cary, N.C.). […]

[2] = system: ADSC/ECFC co-culture stimulated with EGF; test: EGF-driven cord formation; assay type: cell-based; settings: 100 nM; 10 ng/ml EGF; 96 hours
Text: (§4) An in vitro endothelial cord formation assay, a surrogate of angiogenesis, may be used to investigate the role of human BMP7 proteins on various growth factor established cords including, but not limited to, VEGF, basic FGF, and EGF established cords. Endothelial cord forming cells (ECFCs; passage 4-10 suitable for cord formation) may be cultured in EGM-2 MV (Lona) media containing a final concentration of 10% FBS and passaged onto type 1 collagen (fibrillar) coated flasks prior to seeding into the cord formation assay in vitro. […]
(§5) An ADSC/ECFC co-culture was unstimulated (basal) or stimulated with 10 ng/ml EGF and treated simultaneously with PBS or 100 ng/ml human pro-BMP7 variant F9 or 100 nM sunitinib for 96 hours prior to immunohistochemistry for CD31 (green), α-smooth muscle actin (red), and Hoechst 33342 to stain all nuclei (blue). Resulting CD31-positive endothelial cords were visualized and quantitated using high content imaging. […]

[3] = system: ADSC/ECFC co-culture stimulated with VEGF; test: VEGF-driven cord formation; assay type: cell-based; settings: 100 nM; 10 ng/ml VEGF; 96 hours
Text: as §4
as §5, with “VEGF” for “EGF”

[4] = system: ADSC/ECFC co-culture stimulated with bFGF; test: FGF-driven cord formation; assay type: cell-based; settings: 100 nM; 10 ng/ml bFGF; 96 hours
Text: as §4
as §5, with “bFGF” for “EGF”

CC1=C(/C=C/C(C)=C/C=C/C(C)=C/C(=O)O)C(C)(C)CCC1 [ATRA, All-trans retinoic acid, reference compound]
Ki67 percent responders normalized to vehicle control (Ki67; GBM clone CL-1, Day 3): 99% | Ki67 percent responders normalized to vehicle control (Ki67; GBM clone CL-61, Day 0): 83% | Ki67 percent responders normalized to vehicle control (Ki67; GBM clone Cl-1, Day 25): 101% | fold change in alkaline phosphatase stimulation relative to control vehicle treated cells (3T3-L1 fibroblasts): 2.9 fold | SOX2 percent responders normalized to vehicle control (SOX2; GBM clone CL-1, Day 3): 97% | SOX2 percent responders normalized to vehicle control (SOX2; GBM clone CL-61, Day 0): 89% | SOX2 percent responders normalized to vehicle control (SOX2; GBM clone Cl-1, Day 25): 97% | fold change in alkaline phosphatase stimulation relative to control vehicle treated cells [1]: 8 fold

CCc1c2c(nc3ccc(OC(=O)N4CCC(N5CCCCC5)CC4)cc13)-c1cc3c(c(=O)n1C2)COC(=O)[C@]3(O)CC [irinotecan, reference compound]
tumor response (DLD1 C5 tumor xenografts): tumor growth

CCN(CC)CCNC(=O)c1c(C)[nH]c(/C=C2\C(=O)Nc3ccc(F)cc32)c1C [sunitinib, reference compound]
Connected Tube Area - EGF (% PBS) [2]: 9.89 ± 8.059% | Connected Tube Area - VEGF (% PBS) [3]: 26.14 ± 9.88% | Connected Tube Area - FGF (% PBS) [4]: 43.01 ± 18.28%
